What was measured:
[1] = Stability of omeprazole in alcoholic solution under chromatographic conditions; type: physicochemical; details: methanol with addition of 0.1% diethylamine
Source text: It has previously been reported that alcoholic solution of omeprazole is not stable in room temperature and in daylight. There is thus a risk that one or several decomposition products might co-elute with one of the enantiomers.

[2] = room temperature and daylight; cited from earlier work

## COc1ccc2[nH]c([S+]([O-])Cc3ncc(C)c(OC)c3C)nc2c1 (racemic) [omeprazole, 5-methoxy-2-[[(4-methoxy-3,5-dimethyl-2-pyridinyl)methyl]sulfinyl]-1H-benzimidazole]
[1]
  stability of solution in methanol: stabilizes a solution of omeprazole in methanol to a sufficient degree
[2]
  stability of alcoholic solution: not stable

— US20050049282A1, “Process” (priority 2001, published 2005)
